Experimental data taken from the supplement of paper PMC6045584.
± gives the standard deviation of the averaged measurements.

Key:
[1] = compound: COc1cccc2c1C(=O)c1c(O)c3c(c(O)c1C2=O)C[C@@](O)(C(=O)CO)C[C@@H]3O[C@H]1C[C@H](N)[C@H](O)[C@H](C)O1 [DOXORUBICIN]; experiment: surviving fraction relative to DMSO-only wells; higher = less growth inhibition; details: exposure time: 5 days
Method in brief: (§1)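 Surviving fraction was calculated by normalising CellTiter-Glo luminescence to the median of DMSO-only wells. Tumour cell lines in log phase were seeded in 384-well plates at 250–500 cells per well, and 24 hours later were exposed continuously for five days to inhibitors at 0.5, 1, 5, 10, 50, 100, 500 and 1000 nM.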

[2] = compound: CS(=O)(=O)c1ccc(C(=O)Nc2ccc(Cl)c(-c3ccccn3)c2)c(Cl)c1 [VISMODEGIB]; experiment: as above; details: exposure time: 5 days
Method in brief: as §1

Row | Test System | surviving fraction ([1]; 0.5 nM) | surviving fraction ([1]; 1 nM) | surviving fraction ([1]; 5 nM) | surviving fraction ([1]; 10 nM) | surviving fraction ([1]; 50 nM) | surviving fraction ([1]; 100 nM) | surviving fraction ([1]; 500 nM) | surviving fraction ([1]; 1000 nM) | surviving fraction ([2]; 0.5 nM) | surviving fraction ([2]; 1 nM) | surviving fraction ([2]; 5 nM) | surviving fraction ([2]; 10 nM) | surviving fraction ([2]; 50 nM) | surviving fraction ([2]; 100 nM) | surviving fraction ([2]; 500 nM) | surviving fraction ([2]; 1000 nM)
1 | PCI30 HEADNECK | 0.979 ± 0.094 | 0.929 ± 0.01 | 0.92 ± 0.13 | 0.637 ± 0.061 | 0.551 ± 0.022 | 0.587 ± 0.024 | 0.079 ± 0.023 | 0.03 ± 0.0027 | 0.911 ± 0.028 | 0.956 ± 0.07 | 0.96 ± 0.04 | 0.947 ± 0.065 | 0.898 ± 0.079 | 0.949 ± 0.017 | 0.844 ± 0.077 | 0.876 ± 0.043
2 | RDES SOFT TISSUE | 1.15 ± 0.035 | 1.15 ± 0.061 | 1.04 ± 0.05 | 1.25 ± 0.14 | 0.16 ± 0.021 | 0.0457 ± 0.004 | 0.087 ± 0.0098 | 0.0413 ± 0.0031 | 1.06 ± 0.088 | 1.1 ± 0.047 | 1.11 ± 0.22 | 1.16 ± 0.034 | 0.677 ± 0.3 | 0.83 ± 0.34 | 0.761 ± 0.18 | 0.717 ± 0.32
3 | S68 BREAST | 0.792 ± 0.077 | 0.87 ± 0.13 | 0.693 ± 0.16 | 0.424 ± 0.016 | 0.205 ± 0.013 | 0.19 ± 0.015 | 0.037 ± 0.0046 | 0.0317 ± 0.0011 | 0.99 ± 0.087 | 0.839 ± 0.11 | 1.21 ± 0.25 | 1.04 ± 0.2 | 0.762 ± 0.19 | 0.917 ± 0.23 | 0.805 ± 0.12 | 0.621 ± 0.058
4 | SAOS2 BONE | 1.13 ± 0.038 | 1.1 ± 0.054 | 1.09 ± 0.043 | 0.914 ± 0.055 | 0.277 ± 0.0081 | 0.111 ± 0.0087 | 0.036 | 0.0367 ± 0.0029 | 1.11 ± 0.052 | 1.097 ± 0.0075 | 1.08 ± 0.059 | 1.099 ± 0.0081 | 0.834 ± 0.082 | 0.954 ± 0.052 | 0.85 ± 0.036 | 0.916 ± 0.055
5 | SCC003 HEADNECK | 0.959 ± 0.12 | 1.04 ± 0.12 | 1.02 ± 0.1 | 0.855 ± 0.098 | 0.396 ± 0.046 | 0.431 ± 0.065 | 0.11 ± 0.025 | 0.0417 ± 0.0086 | 0.956 ± 0.073 | 0.988 ± 0.029 | 1.05 ± 0.17 | 1.06 ± 0.11 | 0.918 ± 0.082 | 1.05 ± 0.14 | 0.852 ± 0.08 | 0.98 ± 0.056
6 | SCC36 HEADNECK | 0.694 ± 0.073 | 1.13 ± 0.046 | 0.903 ± 0.001 | 0.795 ± 0.087 | 0.426 ± 0.024 | 0.5 ± 0.069 | 0.035 ± 0.0027 | 0.034 ± 0.002 | 0.88 ± 0.031 | 0.979 ± 0.033 | 1.07 ± 0.048 | 1.05 ± 0.051 | 0.739 ± 0.094 | 0.779 ± 0.085 | 0.731 ± 0.071 | 0.721 ± 0.076
7 | SCC47 HEADNECK | 1.021 ± 0.0081 | 1.03 ± 0.11 | 1.09 ± 0.09 | 0.966 ± 0.051 | 0.573 ± 0.027 | 0.597 ± 0.039 | 0.09 ± 0.0027 | 0.0307 ± 0.0015 | 0.968 ± 0.064 | 1 ± 0.07 | 0.992 ± 0.044 | 1.04 ± 0.07 | 0.892 ± 0.026 | 0.963 ± 0.026 | 0.9167 ± 0.004 | 0.954 ± 0.016
8 | SCC90 HEADNECK | 0.967 ± 0.034 | 0.956 ± 0.046 | 0.954 ± 0.029 | 1.06 ± 0.1 | 0.711 ± 0.12 | 0.571 ± 0.072 | 0.11 ± 0.033 | 0.0687 ± 0.0095 | 0.824 ± 0.014 | 0.945 ± 0.051 | 0.908 ± 0.092 | 1.01 ± 0.023 | 0.848 ± 0.026 | 0.84 ± 0.053 | 0.841 ± 0.015 | 0.881 ± 0.029
9 | SG27 HEADNECK | 0.988 ± 0.057 | 0.967 ± 0.037 | 1.09 ± 0.094 | 1.04 ± 0.059 | 0.949 ± 0.038 | 0.867 ± 0.081 | 0.097 ± 0.014 | 0.0447 ± 0.019 | 0.942 ± 0.013 | 0.974 ± 0.13 | 1 ± 0.062 | 0.962 ± 0.071 | 0.933 ± 0.039 | 0.961 ± 0.052 | 0.9 ± 0.052 | 1.03 ± 0.13
10 | SG28 HEADNECK | 1.11 ± 0.12 | 1.11 ± 0.083 | 0.976 ± 0.081 | 1.03 ± 0.011 | 0.851 ± 0.13 | 0.609 ± 0.014 | 0.0457 ± 0.0098 | 0.038 ± 0.0036 | 1 ± 0.033 | 0.995 ± 0.042 | 0.979 ± 0.096 | 0.921 ± 0.096 | 0.801 ± 0.043 | 0.831 ± 0.019 | 0.837 ± 0.076 | 0.929 ± 0.099
11 | SG31 HEADNECK | 1.1 ± 0.095 | 1.03 ± 0.035 | 0.818 ± 0.035 | 0.717 ± 0.11 | 0.556 ± 0.03 | 0.495 ± 0.037 | 0.0787 ± 0.02 | 0.0363 ± 0.01 | 0.965 ± 0.17 | 1.01 ± 0.2 | 0.946 ± 0.088 | 1.11 ± 0.22 | 0.783 ± 0.031 | 0.94 ± 0.054 | 0.834 ± 0.049 | 0.826 ± 0.091
12 | SG32 HEADNECK | 1.19 ± 0.12 | 1.07 ± 0.27 | 0.828 ± 0.14 | 0.563 ± 0.099 | 0.414 ± 0.04 | 0.194 ± 0.019 | 0.04 ± 0.017 | 0.0313 ± 0.0081 | 1.01 ± 0.031 | 1.08 ± 0.11 | 1.07 ± 0.17 | 1.58 ± 0.69 | 0.857 ± 0.06 | 1.08 ± 0.26 | 0.844 ± 0.14 | 0.873 ± 0.075
13 | SG43 HEADNECK | 0.854 ± 0.15 | 0.776 ± 0.14 | 0.802 ± 0.076 | 0.675 ± 0.16 | 0.453 ± 0.056 | 0.322 ± 0.067 | 0.0633 ± 0.027 | 0.048 ± 0.024 | 0.961 ± 0.18 | 1.15 ± 0.63 | 0.861 ± 0.075 | 0.972 ± 0.32 | 1.18 ± 0.35 | 0.9673 ± 0.0015 | 1.17 ± 0.3 | 1.18 ± 0.14
14 | SIHA CERVIX | 0.996 ± 0.084 | 0.998 ± 0.08 | 1.04 ± 0.053 | 0.9867 ± 0.0011 | 0.505 ± 0.04 | 0.481 ± 0.0086 | 0.0967 ± 0.061 | 0.0287 ± 0.00058 | 0.961 ± 0.024 | 1.08 ± 0.038 | 1.03 ± 0.045 | 1.06 ± 0.025 | 0.923 ± 0.044 | 0.993 ± 0.12 | 0.895 ± 0.097 | 0.991 ± 0.064
15 | SJSA1 BONE | 1.02 ± 0.015 | 0.991 ± 0.027 | 0.927 ± 0.012 | 0.636 ± 0.052 | 0.564 ± 0.014 | 0.284 ± 0.013 | 0.0957 ± 0.005 | 0.0317 ± 0.0021 | 0.999 ± 0.043 | 1.01 ± 0.07 | 1.04 ± 0.024 | 1.01 ± 0.045 | 1.04 ± 0.073 | 1.02 ± 0.052 | 1.02 ± 0.093 | 0.985 ± 0.05
16 | SKBR3 BREAST | 0.804 ± 0.17 | 0.871 ± 0.1 | 0.852 ± 0.049 | 0.724 ± 0.16 | 0.375 ± 0.026 | 0.256 ± 0.0044 | 0.0547 ± 0.0061 | 0.0297 ± 0.0032 | 1.15 ± 0.085 | 0.954 ± 0.027 | 0.907 ± 0.059 | 0.975 ± 0.09 | 1.01 ± 0.068 | 0.896 ± 0.029 | 0.764 ± 0.026 | 0.774 ± 0.075
17 | SNU475 LIVER | 0.958 ± 0.051 | 0.9777 ± 0.0038 | 0.982 ± 0.018 | 0.958 ± 0.059 | 0.484 ± 0.034 | 0.392 ± 0.015 | 0.3 ± 0.032 | 0.192 ± 0.012 | 0.959 ± 0.046 | 0.946 ± 0.057 | 0.967 ± 0.019 | 0.982 ± 0.0087 | 0.884 ± 0.032 | 0.89 ± 0.03 | 0.869 ± 0.024 | 0.902 ± 0.012
18 | SUM44 BREAST | 0.938 ± 0.054 | 0.887 ± 0.041 | 0.987 ± 0.044 | 0.895 ± 0.022 | 0.859 ± 0.06 | 0.811 ± 0.051 | 0.14 ± 0.021 | 0.054 ± 0.0027 | 0.945 ± 0.033 | 0.951 ± 0.048 | 0.994 ± 0.017 | 0.934 ± 0.02 | 0.929 ± 0.051 | 0.9713 ± 0.0095 | 0.924 ± 0.14 | 0.876 ± 0.055
19 | SUM149 BREAST | 1.01 ± 0.013 | 0.961 ± 0.13 | 0.401 ± 0.056 | 0.233 ± 0.025 | 0.186 ± 0.014 | 0.145 ± 0.0087 | 0.0277 ± 0.0031 | 0.0253 ± 0.00058 | 0.871 ± 0.11 | 0.856 ± 0.042 | 0.968 ± 0.053 | 0.877 ± 0.0066 | 0.904 ± 0.1 | 0.887 ± 0.014 | 0.945 ± 0.088 | 0.895 ± 0.077
20 | SUM149.B1*.S BREAST | 1.03 ± 0.031 | 1.065 ± 0.0083 | 1.01 ± 0.043 | 0.931 ± 0.041 | 0.285 ± 0.0081 | 0.179 ± 0.014 | 0.068 ± 0.0038 | 0.0518 ± 0.0023 | 0.992 ± 0.064 | 0.971 ± 0.056 | 0.981 ± 0.033 | 0.987 ± 0.039 | 0.922 ± 0.051 | 0.988 ± 0.0033 | 0.9072 ± 0.0081 | 0.913 ± 0.054
21 | SUM159 BREAST | 1.1 ± 0.14 | 1.08 ± 0.11 | 1.05 ± 0.11 | 0.964 ± 0.043 | 0.176 ± 0.045 | 0.173 ± 0.027 | 0.0397 ± 0.0021 | 0.039 ± 0.002 | 1.14 ± 0.23 | 1.12 ± 0.17 | 1.14 ± 0.22 | 1.15 ± 0.22 | 1.06 ± 0.12 | 1.08 ± 0.084 | 1.12 ± 0.2 | 1.11 ± 0.14
